Columns and labels:
[1] = system: HCT116 clones #102 and #202; assay: Xenograft tumor model, HCT116 clones conditionally expressing Chk2-DN; type: in vivo, mice
Method: All examples involving animals were approved by an Institutional Animal Care and Use Committee. […] Approximately 2.5×10^6 cells were injected into each hindlimb flank of 6-8 week old female immunocompromised CB17 SCID/beige mice (i.e., thereby generating 2 tumors/mouse). […] Tumor growth was monitored with a caliper according to the formula ½ [length (mm)]×[width (mm)]^2. At the end of the experiment, tumors were excised, and frozen sections from the various groups were stained with control IgG or a FITC-conjugated antibody to HA, and analyzed by fluorescence microscopy.

[2] = system: prostate carcinoma PC3 cells; assay: Survivin expression after DNA damage, Western blotting; type: cell-based, human; conditions: analyzed after 12 hours
Method: (§1) Tumor cell types were exposed to ionizing radiation at doses ranging between 5-10 Gray (Gy) using a ^137Cs source (Gammacell 40), or, alternatively, treated with adriamycin (0-100 nM, Sigma). Cells were harvested after 2-48 h, and analyzed by Western blotting. Antibodies were used having affinities for; i) survivin (1:1000, Novus Biologicals); ii) Chk2 (1:500; Upstate Biotechnology); iii) cytochrome c (1:100; BD Biosciences-Pharmingen); iv) COX-IV (1:500; BD Biosciences-Clontech); v) caspase-3 (1:1000, Cell Signaling Technology); vi) cleaved caspase-3 (1:1000, Cell Signaling Technology); vii) cyclin B1 (1:1000, GNS1, Santa Cruz Biotechnology, Inc.); viii) XIAP (1:1000; Transduction Laboratories); xi) β-actin (1:5000, clone AC-15, A5441; Sigma-Aldrich); and xii) Thr^68-phosphorylated Chk2 (Cell Signaling Technology).

HCT116 cells [3] = assay: Colony formation assay in soft agar; type: cell-based; conditions: increasing doses of ionizing radiation
Method: Wild-type HCT116 cells were transduced with a replication deficient adenovirus encoding GFP, Chk2-DN, or Thr^34→Ala^34 survivin DN at an m.o.i. of 50. O'Connor et al., “A p34(cdc2) survival checkpoint in cancer” Cancer Cell 2:43-54 (2002). Twenty-four hours later, approximately 3×10^4 cells were treated with or without ionizing radiation, and suspended in 1.5 ml of DMEM plus 10% FBS and 0.35% bactoagar (BD) in 6-well culture plates containing 1.5 ml of 0.75% agarose in growth medium at the bottom layer. Plates were incubated at 37° C. in 5% CO2 for 2 weeks. Colonies were stained with 0.005% crystal violet (Sigma-Aldrich), and counted using a dissecting microscope under high-power field.

Chk2 = Chk2 (Homo sapiens, UniProt O96017); conditions: expressed and purified Chk2; cited from earlier work
Chk2, sequence (O96017 whole entry): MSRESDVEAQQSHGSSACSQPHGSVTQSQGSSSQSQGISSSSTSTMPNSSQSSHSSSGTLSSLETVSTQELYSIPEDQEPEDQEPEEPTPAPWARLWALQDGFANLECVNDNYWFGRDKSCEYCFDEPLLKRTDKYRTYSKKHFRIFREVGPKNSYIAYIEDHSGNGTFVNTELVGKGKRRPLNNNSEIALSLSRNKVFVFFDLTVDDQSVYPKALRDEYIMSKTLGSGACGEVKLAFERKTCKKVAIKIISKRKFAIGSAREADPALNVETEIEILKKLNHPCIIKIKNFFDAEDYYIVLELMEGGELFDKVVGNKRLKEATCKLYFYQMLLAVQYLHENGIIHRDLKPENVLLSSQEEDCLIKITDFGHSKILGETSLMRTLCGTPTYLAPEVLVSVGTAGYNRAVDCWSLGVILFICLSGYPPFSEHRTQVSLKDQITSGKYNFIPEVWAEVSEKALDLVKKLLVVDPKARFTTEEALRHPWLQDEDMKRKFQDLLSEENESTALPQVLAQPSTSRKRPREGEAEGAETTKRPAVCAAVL

MCF-7 cells = assay: Ionizing radiation-induced survivin expression, Western blotting; type: cell-based; conditions: MCF-7 cells transfected
Method: as §1
For gene silencing by short interference RNA (siRNA), tumor cell types were transfected with control (VIII) or survivin-derived (S4) double stranded (ds) RNA oligonucleotides (50 nM) using oligofectamine (3 μl/well), as previously described. Beltrami et al., “Acute ablation of survivin uncovers p53-dependent mitotic checkpoint functions and control of mitochondrial apoptosis” J Biol Chem 279:2077-84 (2004). Alternatively, cells were transfected with control or SMART® pool siRNA oligonucleotides to Chk1 or Chk2 (Dharmacon) using oligofectamine. […]

HCT116 clones #101, #102 = assay: Conditional induction of apoptosis, propidium iodide staining and flow cytometry; type: cell-based; conditions: doxycycline induction plus adriamycin, adriamycin-sensitive clones
Excerpt: Breast adenocarcinoma MCF-7, colon adenocarcinoma HCT116, or prostate adenocarcinoma PC3 cells were obtained from the American Type Culture Collection (ATCC, Manassas Va.), and maintained in culture as recommended by the supplier. Wild-type, p53^−/−, or Chk2^−/− HCT116 cells were kindly provided by Dr. B. Vogelstein (Johns Hopkins University, Baltimore, Md.). The rat insulinoma cell line INS-1 stably transfected with mitochondrially-targeted survivin fused to GFP was created as previously described. Dohi et al., “Mitochondrial survivin inhibits apoptosis and promotes tumorigenesis” J Clin Invest 114:1117-1127 (2004). Wild-type HCT116 cells were stably transfected to conditionally express a kinase-dead Asp^347 Asn^347 Chk2 dominant-negative (DN) cDNA under the control of a tetracycline (tet)-regulated promoter (tet-on system, Clontech), as described previously. Grossman et al., “Inhibition of melanoma tumor growth in vivo by survivin targeting” Proc. Natl. Acad. Sci. U.S.A. 98:635-640 (2001). Conditional induction of Chk2-DN was monitored after addition of 2 μg/ml doxycycline (dox).
[…] Alternatively, cells were exposed to ionizing radiation, and analyzed after 24-48 h for propidium iodide staining (red channel) and active caspase-3 activity (CaspaTag®, Intergen®, green channel), by simultaneous multiparametric flow cytometry. […]

HCT116 cells [4] = assay: Caspase activity and cell death by multiparametric flow cytometry after DNA damage; type: cell-based; conditions: p53+/+ or p53-/- HCT116 cells, ionizing radiation
Method: For gene silencing by short interference RNA (siRNA), tumor cell types were transfected with control (VIII) or survivin-derived (S4) double stranded (ds) RNA oligonucleotides (50 nM) using oligofectamine (3 μl/well), as previously described. Beltrami et al., “Acute ablation of survivin uncovers p53-dependent mitotic checkpoint functions and control of mitochondrial apoptosis” J Biol Chem 279:2077-84 (2004). Alternatively, cells were transfected with control or SMART® pool siRNA oligonucleotides to Chk1 or Chk2 (Dharmacon) using oligofectamine. A replication-deficient adenovirus expressing Chk2-DN was constructed using the pAd-Easy® system, and used at a multiple of infection (m.o.i.) of 50.
Tumor cell types were treated with or without ionizing radiation, harvested after 24 h, and analyzed for changes in cell cycle distribution by propidium iodide staining and flow cytometry. Alternatively, cells were exposed to ionizing radiation, and analyzed after 24-48 h for propidium iodide staining (red channel) and active caspase-3 activity (CaspaTag®, Intergen®, green channel), by simultaneous multiparametric flow cytometry. Dohi et al., “Mitochondrial survivin inhibits apoptosis and promotes tumorigenesis” J Clin Invest 114:1117-1127 (2004).

COc1cccc2c1C(=O)c1c(O)c3c(c(O)c1C2=O)C[C@@](O)(C(=O)CO)C[C@@H]3O[C@H]1C[C@H](N)[C@H](O)[C@H](C)O1 [adriamycin]
effect on tumor growth ([1]; adriamycin-resistant clone #202, SCID/beige mice): no effect
inhibition of tumor growth ([1]; adriamycin-sensitive clone #102, SCID/beige mice, adriamycin 2 mg/kg): 50-60%
survivin expression [2]: concentration-dependent increase in survivin

Thr^34→Ala^34 survivin-DN: dominant-negative survivin mutant delivered by replication deficient adenovirus
colony formation in soft agar (HCT116 cells [3]): nearly completely abolished

CN[C@@H]1C[C@H]2O[C@@](C)([C@@H]1OC)n1c3ccccc3c3c4c(c5c6ccccc6n2c5c31)C(=O)NC4O (stereo partly drawn) [UCN-01]
confirmation of Chk2 potency (Chk2): could not be confirmed

Chk2-DN: kinase-dead Asp347 to Asn347 Chk2 dominant-negative mutant, expressed by transfection, adenovirus or tet-on system
ionizing radiation-induced survivin expression (MCF-7 cells): abolished the increase in survivin expression
induction of apoptosis (HCT116 clones #101, #102): 2- to 4 fold
colony formation in soft agar (HCT116 cells [3]): nearly completely abolished
induction of caspase activity and cell death (HCT116 cells [4]): comparable induction of caspase activity and cell death

Reference: US20080125358A1, “Methods for Chk2 inhibitor patient selection” (UNIVERSITY OF MASSACHUSETTS MEDICAL SCHOOL, priority 2006, published 2008)
